Source: ChEMBL document CHEMBL1135648, “Synthesis and evaluation of no-carrier-added 8-cyclopentyl-3-(3-[(18)F]fluoropropyl)-1-propylxanthine ([(18)F]CPFPX): a potent and selective A(1)-adenosine receptor antagonist for in vivo imaging” (J Med Chem, 2002)

Key:
[1] = tested on: Mus musculus; test: In vivo biodistribution in NMRI (Naval Medical Research Institute) mice lung at the dose of 0.15-0.2 nmol at 2 min; assay type: ADME, organism-based
[2] = tested on: Mus musculus; test: In vivo biodistribution in NMRI (Naval Medical Research Institute) mice liver at the dose of 0.15-0.2 nmol at 5 min; assay type: ADME, organism-based
[3] = tested on: Mus musculus; test: In vivo biodistribution in NMRI (Naval Medical Research Institute) mice heart at the dose of 0.15-0.2 nmol at 5 min; assay type: ADME, organism-based
[4] = tested on: Mus musculus; test: In vivo biodistribution in NMRI (Naval Medical Research Institute) mice kidney at the dose of 0.15-0.2 nmol at 60 min; assay type: ADME, organism-based; conditions: 1 h
[5] = tested on: Mus musculus; test: In vivo biodistribution in NMRI (Naval Medical Research Institute) mice intestine at the dose of 0.15-0.2 nmol at 2 min; assay type: ADME, organism-based
[6] = tested on: Mus musculus; test: In vivo biodistribution in NMRI (Naval Medical Research Institute) mice brain at the dose of 0.15-0.2 nmol at 2 min; assay type: ADME, organism-based
[7] = tested on: Mus musculus; test: In vivo biodistribution in NMRI (Naval Medical Research Institute) mice brain at the dose of 0.15-0.2 nmol at 60 min; assay type: ADME, organism-based; conditions: 1 h
[8] = tested on: Mus musculus; test: In vivo biodistribution in NMRI (Naval Medical Research Institute) mice lung at the dose of 0.15-0.2 nmol at 60 min; assay type: ADME, organism-based; conditions: 1 h
[9] = tested on: Mus musculus; test: In vivo biodistribution in NMRI (Naval Medical Research Institute) mice brain at the dose of 0.15-0.2 nmol at 5 min; assay type: ADME, organism-based
[10] = tested on: Mus musculus; test: In vivo biodistribution in NMRI (Naval Medical Research Institute) mice blood at the dose of 0.15-0.2 nmol at 40 min; assay type: ADME, organism-based
[11] = tested on: Mus musculus; test: In vivo biodistribution in NMRI (Naval Medical Research Institute) mice liver at the dose of 0.15-0.2 nmol at 20 min; assay type: ADME, organism-based
[12] = tested on: Mus musculus; test: In vivo biodistribution in NMRI (Naval Medical Research Institute) mice kidney at the dose of 0.15-0.2 nmol at 40 min; assay type: ADME, organism-based
[13] = tested on: Mus musculus; test: In vivo biodistribution in NMRI (Naval Medical Research Institute) mice kidney at the dose of 0.15-0.2 nmol at 20 min; assay type: ADME, organism-based
[14] = tested on: Mus musculus; test: In vivo biodistribution in NMRI (Naval Medical Research Institute) mice intestine at the dose of 0.15-0.2 nmol at 40 min; assay type: ADME, organism-based
[15] = tested on: Mus musculus; test: In vivo biodistribution in NMRI (Naval Medical Research Institute) mice lung at the dose of 0.15-0.2 nmol at 20 min; assay type: ADME, organism-based
[16] = Ultrafiltration in human plasma; assay type: functional
[17] = tested on: Mus musculus; test: In vivo biodistribution in NMRI (Naval Medical Research Institute) mice blood at the dose of 0.15-0.2 nmol at 60 min; assay type: ADME, organism-based; conditions: 1 h
[18] = tested on: Mus musculus; test: In vivo biodistribution in NMRI (Naval Medical Research Institute) mice blood at the dose of 0.15-0.2 nmol at 20 min; assay type: ADME, organism-based
[19] = tested on: Mus musculus; test: In vivo biodistribution in NMRI (Naval Medical Research Institute) mice bone at the dose of 0.15-0.2 nmol at 40 min; assay type: ADME, organism-based, Bone element
[20] = tested on: Mus musculus; test: In vivo biodistribution in NMRI (Naval Medical Research Institute) mice blood at the dose of 0.15-0.2 nmol at 10 min; assay type: ADME, organism-based
[21] = tested on: Mus musculus; test: In vivo biodistribution in NMRI (Naval Medical Research Institute) mice pancreas at the dose of 0.15-0.2 nmol at 5 min; assay type: ADME, organism-based
[22] = tested on: Mus musculus; test: In vivo biodistribution in NMRI (Naval Medical Research Institute) mice liver at the dose of 0.15-0.2 nmol at 10 min; assay type: ADME, organism-based
[23] = tested on: Mus musculus; test: In vivo biodistribution in NMRI (Naval Medical Research Institute) mice liver at the dose of 0.15-0.2 nmol at 60 min; assay type: ADME, organism-based; conditions: 1 h
[24] = tested on: Mus musculus; test: In vivo biodistribution in NMRI (Naval Medical Research Institute) mice pancreas at the dose of 0.15-0.2 nmol at 10 min; assay type: ADME, organism-based
[25] = molecular target: T1, Adenosine receptor A1 (Bos taurus, UniProt P28190); test: In vitro binding affinity for Adenosine A1 receptor of bovine cortex
T1 sequence (P28190 whole entry): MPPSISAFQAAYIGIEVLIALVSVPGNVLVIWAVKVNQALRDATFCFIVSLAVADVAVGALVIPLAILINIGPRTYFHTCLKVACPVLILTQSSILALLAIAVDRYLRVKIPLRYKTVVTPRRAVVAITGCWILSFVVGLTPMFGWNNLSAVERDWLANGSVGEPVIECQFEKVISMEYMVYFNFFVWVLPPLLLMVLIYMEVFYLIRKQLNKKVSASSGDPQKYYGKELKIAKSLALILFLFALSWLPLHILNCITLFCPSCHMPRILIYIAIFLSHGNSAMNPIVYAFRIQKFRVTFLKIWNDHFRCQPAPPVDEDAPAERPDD

[26] = tested on: Mus musculus; test: In vivo biodistribution in NMRI (Naval Medical Research Institute) mice kidney at the dose of 0.15-0.2 nmol at 5 min; assay type: ADME, organism-based
[27] = tested on: Mus musculus; test: In vivo biodistribution in NMRI (Naval Medical Research Institute) mice heart at the dose of 0.15-0.2 nmol at 20 min; assay type: ADME, organism-based
[28] = tested on: Mus musculus; test: In vivo biodistribution in NMRI (Naval Medical Research Institute) mice pancreas at the dose of 0.15-0.2 nmol at 2 min; assay type: ADME, organism-based
[29] = tested on: Mus musculus; test: In vivo biodistribution in NMRI (Naval Medical Research Institute) mice intestine at the dose of 0.15-0.2 nmol at 10 min; assay type: ADME, organism-based
[30] = tested on: Mus musculus; test: In vivo biodistribution in NMRI (Naval Medical Research Institute) mice spleen at the dose of 0.15-0.2 nmol at 5 min; assay type: ADME, organism-based
[31] = tested on: Mus musculus; test: In vivo biodistribution in NMRI (Naval Medical Research Institute) mice blood at the dose of 0.15-0.2 n mol at 2 min; assay type: ADME, organism-based
[32] = tested on: Mus musculus; test: In vivo biodistribution in NMRI (Naval Medical Research Institute) mice intestine at the dose of 0.15-0.2 nmol at 20 min; assay type: ADME, organism-based
[33] = tested on: Mus musculus; test: In vivo biodistribution in NMRI (Naval Medical Research Institute) mice heart at the dose of 0.15-0.2 nmol at 40 min; assay type: ADME, organism-based

SMILES: CCCn1c(=O)c2nc(C3CCCC3)[nH]c2n(CCC[18F])c1=O
- ID/g [1]: 5.35%
- ID/g [2]: 7.44%
- ID/g [3]: 3.71%
- ID/g [4]: 2.63%
- ID/g [5]: 2.07%
- ID/g [6]: 2.45%
- ID/g [7]: 1.55%
- ID/g [8]: 2.43%
- ID/g [9]: 2.37%
- ID/g [10]: 3.92%
- ID/g [11]: 9.93%
- ID/g [12]: 5.95%
- ID/g [13]: 6.05%
- ID/g [14]: 3.74%
- ID/g [15]: 5.75%
- Ultrafiltration [16]: 86
- ID/g [17]: 1.55%
- ID/g [18]: 4.13%
- ID/g [19]: 2.18%
- ID/g [20]: 5.21%
- ID/g [21]: 3.35%
- ID/g [22]: 8.64%
- ID/g [23]: 4.36%
- ID/g [24]: 4.29%
- Ki [25]: 0.18 nM
- ID/g [26]: 3.81%
- ID/g [27]: 4.11%
- ID/g [28]: 3.58%
- ID/g [29]: 3.08%
- ID/g [30]: 1.56%
- ID/g [31]: 11.2%
- ID/g [32]: 3.51%
- ID/g [33]: 4.23%
